From patent US11339193B2, “CDP protein secretion inhibitors” (KEZAR LIFE SCIENCES, priority 2018, dated 2022)
Read-outs that look alike come from different tables or passages of the source. Numbered stars: 1 amine (or outer) side, 2 acyl side, 3 side chain; on linkers, the order of the positions; unused ones are H or OH. Square brackets hold non-standard residues; d marks the D form. Peptide text beside a SMILES is read from it. NMeAla(5-Cl-benzothien-3-yl) = CN[C@@H](Cc1csc2ccc(Cl)cc12)C(=O)O; X19 = CN([C@@H](Cc1cn(Cc2ccc(Cl)cc2)c2ccccc12)C(=O)[*:2])[*:1]; Ala(1-cyclohexenyl) = N[C@@H](CC1=CCCCC1)C(=O)O; Butanoyl(2R-oxy,4-CN) = N#CCC[C@@H](O)C(=O)O; NMePhe(4-F) = CN[C@@H](Cc1ccc(F)cc1)C(=O)O; X28 = CCCC[C@H](C)C[C@H](N[*:1])C(=O)[*:2]; Abu(4,4,4-F3) = N[C@@H](CC(F)(F)F)C(=O)O; X12 = O=C([C@H](CC1=CCCC1)N[*:1])[*:2]; NMeL = CN[C@@H](CC(C)C)C(=O)O; NMeA = CN[C@@H](C)C(=O)O; dLac = C[C@@H](O)C(=O)O

How the values were obtained:
Assay type in all cases: cell-based
[1] = system: PD1-ss+10aa/Gaussia Luciferase; experiment: Dox induced PD1-ss-Gluc assay
Summary of the method: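 Stable Flp-In 293 T-REx line expressing doxycycline-inducible Gaussia luciferase fused to the PD1 signal sequence plus 10 amino acids. Cells plated the day before, then exposed to compound dilutions in DMSO/media containing doxycycline at 37 °C, 5% CO2.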

[2] = system: TNFα-FL/Gaussia Luciferase; experiment: Dox induced TNFα-FL-Gluc assay
Summary of the method: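 Stable Flp-In 293 T-REx line expressing full-length TNFα (aa 1-233) fused at its C-terminus to Gaussia luciferase under doxycycline-inducible control. Cells plated the day before, then given compound dilutions in DMSO/media containing doxycycline and incubated at 37 °C, 5% CO2.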

[3] = system: NCI-H929 multiple myeloma cell line; experiment: H929 assay (cell viability, Celltiter-Glo); conditions: Homo sapiens, read-out: H929 EC50
Summary of the method: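 Cells plated in RPMI 1640 with 10% FBS and 2 mM glutamine, treated with compound dilutions in DMSO/media. Incubation 48 h at 37° C, 5% CO2. Viability from luciferase luminescence signal.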

[4] = system: Prl-ss+10aa/Gaussia Luciferase; experiment: Prl-ss-Gluc assay (constitutively active or 24 hr Dox inducible)
Summary of the method: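 Stable Flp-In 293 T-REx lines express Prl signal sequence+10aa fused to Gaussia luciferase, either constitutively (pcDNA5/FRT) or under the T-REx promoter (pcDNA5/FRT/TO). Cells plated the day before; compounds in DMSO/media (with doxycycline for the inducible line, 24 h) incubated at 37 °C, 5% CO2.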

[5] = system: VCAMss+10aa/Gaussia Luciferase; experiment: VCAM-ss-Gluc assay (constitutively active or Dox induced); conditions: Flp-In 293 T-REx cells, 24 hours
Method: Assays Constitutively Active VCAM-ss-Gluc Assay
Transfected cells were selected for resistance to the selectable markers Hygromycin and Blasticidin to create a stable cell line that constitutively expressed the VCAMss+ 10aa/Gaussia Luciferase fusion protein. The day before assay, cells were trypsinized and plated in 384-well tissue culture plates. The next day, culture media was removed from the wells and replaced with fresh media. Compound dilutions in DMSO/media were added to the wells and incubated at 37° C., 5% CO2.
Dox Induced VCAM-ss-Gluc Assay
Transfected cells were selected for resistance to the selectable markers Hygromycin and Blasticidin to create a stable cell line that contained the VCAMss+10aa/Gaussia Luciferase cDNA insert whose expression was regulated under the T-REx™ system. The day before assay, cells were trypsinized and plated in 384-well tissue culture plates. The next day, compound dilutions in DMSO/media containing doxycycline were added to the wells and incubated at 37° C., 5% CO2.

[6] = system: U266B1 multiple myeloma cell line; experiment: U266 assay (cell viability, Celltiter-Glo); conditions: Homo sapiens, U-266
Method: Cells were plated in 384-well tissue culture plates and treated with compound dilutions in DMSO/media. Plates were incubated at 37° C., 5% CO2 for 48 hours. After 48 hours, Celltiter-Glo@ (Promega) was added to each well and luciferase signal was quantified using Tecan Infinite M1000 Pro for cell viability determination.

[7] = system: JJN3 plasma cell leukemia cell line; experiment: JJN-3 assay (Alamar blue); conditions: Homo sapiens, 72 h
Method: BT474 is a human breast tumor cell line. JJN3 is a human plasma cell leukemia cell line. […] Cells were seeded at 100 000 cells/mL. Aliquots of 5000 cells (50 μL) were added to each well in black, clear bottom 96-well plates. Compounds or control (50 uL of 1% DMSO in cell culture medium) were added to the cells to the indicated final concentrations and cells were incubated for 72 h (unless otherwise specified). After incubation was complete, Alamar blue (10 uL of a 1 mg/mL solution) was added to each well and plates were incubated for 5 h. Fluorescence was then measured (excitation 545 nm, emission 590 nm) and is reported as […] normalized to DMSO control.

HER3ss-Gluc = experiment: HER3ss assay
Summary of the method: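 HEK-293T T-REx cells were transiently transfected with HER3 signal sequence (plus four mature-domain residues) fused upstream of mature Gaussia luciferase. Cells were induced with doxycycline (1 μg/ml) and exposed to increasing compound concentrations for 24 h, then secreted luciferase in the conditioned medium was read by luminescence.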

[8] = Flp-In 293 T-REx cells, doxycycline, 24 hours; read-out: PD1ss Gluc IC50
[9] = Flp-In 293 T-REx cells, doxycycline, 24 hours; read-out: TNFa FL Gluc IC50
[10] = NCI-H929, 48 hours, cell viability
[11] = Flp-In 293 T-REx cells, 24 hours; read-out: Prl IC50
[12] = HEK-293T T-rex cells, transient transfection, doxycycline, 24 h; read-out: HER3 ss IC50

| SMILES | IC50 [1, 8] [nM] | IC50 [2, 9] [nM] | EC50 [3, 10] [µM] | IC50 [5] [nM] | IC50 (HER3ss-Gluc; [12]) [nM] | EC50 ([6]; I.A.) [µM] | also measured |
| --- | --- | --- | --- | --- | --- | --- | --- |
| CCCC[C@@H](C)C[C@@H]1NC(=O)[C@H](Cc2ccc(F)cn2)N(C)C(=O)[C@H](CC(C)C)NC(=O)[C@H](CC(C)C)N(C)C(=O)[C@H](C[C@H](C)CCCC)NC(=O)[C@@H](CCC#N)OC(=O)[C@H](C)N(C)C1=O [C-17] | 149 | 274 | 2.2 | 14 |  |  | IC50 [4, 11]: 6.34 µM; EC50 ([6]; 48 hours, cell viability): 9.13 µM |
| CC(C)C[C@@H]1NC(=O)[C@H](Cc2cn(Cc3ccc(F)cc3)c3ccccc23)N(C)C(=O)[C@H](CC(C)C)NC(=O)[C@H](CC(C)C)N(C)C(=O)[C@H](CC(C)C)NC(=O)[C@@H](C)OC(=O)[C@H](C)N(C)C1=O [C-30] (HELM PEPTIDE1{L.[meA].[C[C@@H](O[*:1])C(=O)[*:2]].L.[meL].L.[CN([C@@H](Cc1cn(Cc2ccc(F)cc2)c2ccccc12)C(=O)[*:2])[*:1]]}$PEPTIDE1,PEPTIDE1,1:R1-7:R2$$$V2.0) |  |  |  |  |  |  | EC50 [7]: 14.2 µM |
| CC(C)C[C@@H]1NC(=O)[C@H](Cc2ccccc2)N(C)C(=O)[C@H](CC(C)C)NC(=O)[C@H](CC(C)C)N(C)C(=O)[C@H](CC(C)C)NC(=O)[C@@H](C)OC(=O)[C@H](C)N(C)C1=O [C-34] (HELM PEPTIDE1{L.[meA].[C[C@@H](O[*:1])C(=O)[*:2]].L.[meL].L.[meF]}$PEPTIDE1,PEPTIDE1,1:R1-7:R2$$$V2.0) | 1050 |  | 6.54 | 274 | 963 |  |  |
| CCCC[C@H](C)C[C@@H]1NC(=O)[C@H](Cc2ccc(F)cc2)N(C)C(=O)[C@H](CC(C)C)NC(=O)[C@H](CC(C)C)N(C)C(=O)[C@H](CC(C)C)NC(=O)[C@@H](C)OC(=O)[C@H](C)N(C)C1=O [C-69] (cyclo(L[NMeL]L[NMePhe(4-F)][X28][NMeA][dLac])) |  |  |  | 1700 |  |  |  |
| CC(C)C[C@@H]1NC(=O)[C@H](Cc2c[nH]c3ccccc23)N(C)C(=O)[C@H](CC(C)C)NC(=O)[C@H](CC(C)C)N(C)C(=O)[C@H](CC(C)C)NC(=O)[C@@H](CCC#N)OC(=O)[C@H](C)N(C)C1=O [C-71] (HELM PEPTIDE1{L.[meA].[N#CCC[C@@H](O[*:1])C(=O)[*:2]].L.[meL].L.[meW]}$PEPTIDE1,PEPTIDE1,1:R1-7:R2$$$V2.0) |  |  |  | 354 | 445 |  |  |
| CC(C)C[C@@H]1NC(=O)[C@H](Cc2cn(Cc3ccccc3)c3ccccc23)N(C)C(=O)[C@H](CC(C)C)NC(=O)[C@H](CC(C)C)N(C)C(=O)[C@H](CC(C)C)NC(=O)[C@@H](C)OC(=O)[C@H](C)N(C)C1=O [C-72] (HELM PEPTIDE1{L.[meA].[C[C@@H](O[*:1])C(=O)[*:2]].L.[meL].L.[CN([C@@H](Cc1cn(Cc2ccccc2)c2ccccc12)C(=O)[*:2])[*:1]]}$PEPTIDE1,PEPTIDE1,1:R1-7:R2$$$V2.0) |  |  |  | 327 | 226 |  |  |
| CC(C)C[C@@H]1NC(=O)[C@H](Cc2cn(Cc3ccccc3)nn2)N(C)C(=O)[C@H](CC(C)C)NC(=O)[C@H](CC(C)C)N(C)C(=O)[C@H](CC(C)C)NC(=O)[C@@H](CCC#N)OC(=O)[C@H](C)N(C)C1=O [C-73] |  |  |  | 3150 |  |  |  |
| CC(C)C[C@@H]1NC(=O)[C@H](Cc2cn(Cc3ccc(Cl)cc3)c3ccccc23)N(C)C(=O)[C@H](CC(C)C)NC(=O)[C@H](CC(C)C)N(C)C(=O)[C@H](CC(F)(F)F)NC(=O)[C@@H](CCC#N)OC(=O)[C@H](C)N(C)C1=O [C-95] (cyclo(L[NMeA][Butanoyl(2R-oxy,4-CN)][Abu(4,4,4-F3)][NMeL]L[X19])) |  |  |  |  |  | > 25 | IC50 ([1]; read-out: PD1ss Gluc IC50; Flp-In 293 T-REx cells, doxycycline, 24 hours): 19 nM; IC50 ([2]; read-out: TNFa FL Gluc IC50; Flp-In 293 T-REx cells, doxycycline, 24 hours): 93 nM; EC50 ([3]; NCI-H929, 48 h): 0.588 µM; IC50 ([4]; read-out: Prl IC50; Flp-In 293 T-REx cells, 24 hours): 0.391 µM; IC50 (HER3ss-Gluc; read-out: HER3 ss IC50; HEK-293T T-rex cells, transient transfection, doxycycline, 24 h): 35 nM |
| CC(C)C[C@@H]1NC(=O)[C@H](Cc2csc3ccc(Cl)cc23)N(C)C(=O)[C@H](CC2=CCCC2)NC(=O)[C@H](CC(C)C)N(C)C(=O)[C@H](CC(F)(F)F)NC(=O)[C@@H](CCC#N)OC(=O)[C@H](C)N(C)C1=O [C-96] (cyclo(L[NMeA][Butanoyl(2R-oxy,4-CN)][Abu(4,4,4-F3)][NMeL][X12][NMeAla(5-Cl-benzothien-3-yl)])) | 472 | 3840 | 8.4 |  | 6 | > 25 | IC50 ([4]; I.A.; read-out: Prl IC50): > 25 µM |
| CC(C)C[C@@H]1NC(=O)[C@H](Cc2csc3ccc(Cl)cc23)N(C)C(=O)[C@H](CC2=CCCCC2)NC(=O)[C@H](CC(C)C)N(C)C(=O)[C@H](CC(F)(F)F)NC(=O)[C@@H](CCC#N)OC(=O)[C@H](C)N(C)C1=O [C-97] (cyclo(L[NMeA][Butanoyl(2R-oxy,4-CN)][Abu(4,4,4-F3)][NMeL][Ala(1-cyclohexenyl)][NMeAla(5-Cl-benzothien-3-yl)])) | 709 |  |  |  | 6 | > 25 | IC50 ([2]; I.A.; read-out: TNFa FL Gluc IC50): > 25000 nM; EC50 ([3]; NCI-H929, 48 hours, cell viability, μM): > 20 µM; IC50 ([4]; I.A.; read-out: Prl IC50): > 25 µM |
| CC(C)C[C@@H]1NC(=O)[C@H](Cc2csc3ccc(Cl)cc23)N(C)C(=O)[C@H](CC(C)C)NC(=O)[C@H](CC(C)C)N(C)C(=O)[C@H](CC2=CCCC2)NC(=O)[C@@H](CCC#N)OC(=O)[C@H](C)N(C)C1=O [C-98] (cyclo(L[NMeA][Butanoyl(2R-oxy,4-CN)][X12][NMeL]L[NMeAla(5-Cl-benzothien-3-yl)])) | 259 | 889 | 4 |  | 35 | > 25 | IC50 [4, 11]: 17.9 µM |
| CC(C)C[C@@H]1NC(=O)[C@H](Cc2csc3ccc(Cl)cc23)N(C)C(=O)[C@H](CC(C)C)NC(=O)[C@H](CC(C)C)N(C)C(=O)[C@H](CC2=CCCCC2)NC(=O)[C@@H](CCC#N)OC(=O)[C@H](C)N(C)C1=O [C-99] (cyclo(L[NMeA][Butanoyl(2R-oxy,4-CN)][Ala(1-cyclohexenyl)][NMeL]L[NMeAla(5-Cl-benzothien-3-yl)])) | 149 | 605 | 5.26 |  | 30 | > 25 | IC50 [4, 11]: 19.8 µM |
